According to patent publication US20240376099A1, “COMPOUNDS AND COMPOSITIONS AS INHIBITORS OF ENDOSOMAL TOLL-LIKE RECEPTORS” (Novartis AG, priority 2016, published 2024):

These compounds were tested against T1, TLR8 (Homo sapiens, UniProt Q9NR97) (assay: huPBMC TLR8 Antagonist IL-6 TR-FRET Assay). Details: human PBMCs stimulated with ssRNA40 1 μg/ml (DOTAP), 14-16 hrs; IL-6 TR-FRET read-out.
T1 sequence (Q9NR97 27-1041): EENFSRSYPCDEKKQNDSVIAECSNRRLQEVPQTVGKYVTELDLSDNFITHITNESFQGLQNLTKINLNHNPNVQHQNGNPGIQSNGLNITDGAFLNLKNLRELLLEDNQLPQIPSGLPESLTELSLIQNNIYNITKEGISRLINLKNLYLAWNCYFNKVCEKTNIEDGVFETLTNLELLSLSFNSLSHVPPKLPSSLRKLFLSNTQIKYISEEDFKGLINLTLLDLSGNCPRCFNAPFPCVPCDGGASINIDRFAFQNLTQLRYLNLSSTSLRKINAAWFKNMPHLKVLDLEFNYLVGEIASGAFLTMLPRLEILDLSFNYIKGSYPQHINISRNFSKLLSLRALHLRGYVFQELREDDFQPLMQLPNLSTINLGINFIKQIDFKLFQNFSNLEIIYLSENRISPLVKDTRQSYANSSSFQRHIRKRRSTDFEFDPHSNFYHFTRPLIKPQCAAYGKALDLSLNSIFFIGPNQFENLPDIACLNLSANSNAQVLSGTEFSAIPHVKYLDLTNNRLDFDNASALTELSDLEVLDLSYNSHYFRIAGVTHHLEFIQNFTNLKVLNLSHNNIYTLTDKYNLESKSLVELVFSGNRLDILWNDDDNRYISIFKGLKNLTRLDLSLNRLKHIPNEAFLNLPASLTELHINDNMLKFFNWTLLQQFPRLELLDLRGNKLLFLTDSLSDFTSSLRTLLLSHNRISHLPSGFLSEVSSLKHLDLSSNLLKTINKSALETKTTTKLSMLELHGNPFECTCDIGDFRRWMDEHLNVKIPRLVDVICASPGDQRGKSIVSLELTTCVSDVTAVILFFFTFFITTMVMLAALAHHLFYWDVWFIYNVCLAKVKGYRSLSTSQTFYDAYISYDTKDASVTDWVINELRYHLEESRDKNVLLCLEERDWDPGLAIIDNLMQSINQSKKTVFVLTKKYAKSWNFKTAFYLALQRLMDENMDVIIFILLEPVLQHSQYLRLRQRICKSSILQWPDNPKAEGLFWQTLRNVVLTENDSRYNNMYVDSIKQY
Assay type: cell-based
Design: Fresh blood was collected from normal human donors; endogenous in cells; host or cells: human PBMCs from fresh donor blood
How it was run: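 Human PBMCs from fresh donor blood (150,000 cells/well) stimulated 14–16 h at 37 °C with DOTAP-complexed ssRNA40 (final 1 μg/ml for TLR8, 10 μg/mL for TLR7) or ODN2216 (final 0.3 μM, TLR9), 0.25% DMSO, ten-point 1/3 compound dilutions. Supernatant IL-6 read by HTRF (TLR8); IFNα by IFNα2b AlphaLISA (TLR7/TLR9).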

| SMILES | IC50 [nM] |
| --- | --- |
| Cc1cc(N2CCc3c(c(C)nn3CC34CCC(N5CC[C@H](O)C5)(CC3)CC4)C2)c2cnn(C)c2n1 [compound 75, (S)-1-(4-((5-(1,6-dimethyl-1H-pyrazolo[3,4-b]pyridin-4-yl)-3-methyl-4,5,6,7-tetrahydro-1H-pyrazolo[4,3-c]pyridin-1-yl)methyl)bicyclo[2.2.2]octan-1-yl)pyrrolidin-3-ol] | 134 |
| Cc1nn(CC23CCC(N4CCCC4)(CC2)CC3)c2c1CN(c1ccnc(-c3ccccc3)c1)CC2 [compound 85, 3-methyl-5-(2-phenylpyridin-4-yl)-1-((4-(pyrrolidin-1-yl)bicyclo[2.2.2]octan-1-yl)methyl)-4,5,6,7-tetrahydro-1H-pyrazolo[4,3-c]pyridine] | 224 |
| Cc1cc(N2CCc3c(c(C)nn3CC34CCC(N)(CC3)CC4)C2)c2ccnc(C)c2n1 [compound 92, 4-((5-(2,8-dimethyl-1,7-naphthyridin-4-yl)-3-methyl-4,5,6,7-tetrahydro-1H-pyrazolo[4,3-c]pyridin-1-yl)methyl)bicyclo[2.2.2]octan-1-amine] | 40 |

The remaining compounds from weak to strong by IC50, led by results:

| IC50 [nM] | SMILES |
| --- | --- |
| 466 | Cc1cc(N2CCc3c(c(C)nn3CC34CCC(N5C[C@H](O)[C@@H](O)C5)(CC3)CC4)C2)c2cnn(C)c2n1 [compound 80, (3S,4S)-1-(4-((5-(1,6-dimethyl-1H-pyrazolo[3,4-b]pyridin-4-yl)-3-methyl-4,5,6,7-tetrahydro-1H-pyrazolo[4,3-c]pyridin-1-yl)methyl)bicyclo[2.2.2]octan-1-yl)pyrrolidine-3,4-diol] |
| 377 | Cc1cc(N2CCc3c(c(C)nn3CCC34CCC(N)(CC3)CC4)C2)c2cnn(C)c2n1 [compound 91, 4-(2-(5-(1,6-dimethyl-1H-pyrazolo[3,4-b]pyridin-4-yl)-3-methyl-4,5,6,7-tetrahydro-1H-pyrazolo[4,3-c]pyridin-1-yl)ethyl)bicyclo[2.2.2]octan-1-amine] |
| 136 | Cc1cc(N2CCc3c(c(C)nn3CC34CCC(N(C)C5CCC5)(CC3)CC4)C2)c2cnn(C)c2n1 [compound 79, N-cyclobutyl-4-((5-(1,6-dimethyl-1H-pyrazolo[3,4-b]pyridin-4-yl)-3-methyl-4,5,6,7-tetrahydro-1H-pyrazolo[4,3-c]pyridin-1-yl)methyl)-N-methylbicyclo[2.2.2]octan-1-amine] |
| 48 | Cc1cc(N2CCc3c(c(C)nn3CC34CCC(N5CCCC5)(CC3)CC4)C2)c2ccncc2n1 [compound 86, 2-methyl-4-(3-methyl-1-((4-(pyrrolidin-1-yl)bicyclo[2.2.2]octan-1-yl)methyl)-6,7-dihydro-1H-pyrazolo[4,3-c]pyridin-5(4H)-yl)-1,7-naphthyridine] |
